“And” between values parts separate entries of the source, which are not always exact repeats. Identical values can stand only once.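 A five-concentration, 48-hour dose response in 96-well plates underlies each endpoint, interpolated linearly between surrounding concentrations. At the GI50, growth is halved. TGI denotes the concentration required for complete inhibition of growth.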
How the values were obtained:
Assay in all cases: inhibition of tumour cell growth, NCI panel, 48 h
MDA-N = test system: MDA-N
DLD-1 colon = test system: DLD-1 colon
HOP-18 NSCLC = test system: HOP-18 NSCLC
KM20L2 colon = test system: KM20L2 colon
LXFL 529 NSCLC = test system: LXFL 529 NSCLC
DMS 273 small cell lung = test system: DMS 273 small cell lung
M19-MEL melanoma = test system: M19-MEL melanoma
RXF-631 renal = test system: RXF-631 renal
XF 498 CNS = test system: XF 498 CNS

SMILES | TGI (DLD-1 colon) | TGI (HOP-18 NSCLC) | TGI (KM20L2 colon) | TGI (LXFL 529 NSCLC) | TGI (DMS 273 small cell lung) | TGI (M19-MEL melanoma) | TGI (RXF-631 renal) | TGI (XF 498 CNS) | other results
CCCCCCCCCCCNC=O | – | – | – | – | – | – | – | – | TGI (MDA-N): > 100 µM
NC(N)=NC(N)=Nc1ccc(C(=O)O)cc1 | – | – | – | – | – | – | – | – | TGI (MDA-N): > 100 µM
CCCCCCCC(=O)[O-].CCCCCCCC(=O)[O-].N.N.N.N.[Co+3].[O-][Cl+3]([O-])([O-])[O-] | > 100 µM | > 100 µM | – | – | – | – | – | – | GI50 (DLD-1 colon): > 100 µM; GI50 (HOP-18 NSCLC): 54.8 µM
O=C(c1ccccc1)c1nnn(Cc2ccccc2Cn2nnc(C(=O)c3ccccc3)c2C(=O)c2ccccc2)c1C(=O)c1ccccc1 | > 100 µM | > 100 µM | > 100 µM | > 100 µM | > 100 µM | > 100 µM | – | – | –
O=c1c2ccccc2oc2ccccc12 (tested in a mixture with another compound) | 7.75 µM | – | – | > 100 µM | > 100 µM | – | – | – | –
CC(C)N(C(=O)C12C3C4C5(C(=O)O)C(C1C35I)C42C(=O)O)C(C)C (stereo not drawn) | > 100 µM | – | > 100 µM | > 100 µM | > 100 µM | > 100 µM | > 100 µM | – | –
CC(C)C1(NC(=O)C2CC3c4cccc5[nH]cc(c45)CC3N(C)C2)OC2(O)C3CCCN3C(=O)C(Cc3ccccc3)N2C1=O (stereo not drawn) | – | – | – | – | – | – | – | – | TGI (MDA-N): > 100 µM
Cc1ccccc1-n1c(=S)[nH]c2c(sc(=O)n2-c2ccccc2C)c1=O | > 100 µM | > 100 µM | > 100 µM | > 100 µM | > 100 µM | > 100 µM | > 100 µM | – | –
O=c1cc[nH]cc1-c1c[nH]ccc1=O | > 100 µM | > 100 µM | – | > 100 µM | > 100 µM | > 100 µM | – | – | –
COC(=O)CC1(O)C=CC(=O)C=C1 | – | – | – | – | – | – | – | – | TGI (MDA-N): 20.9 µM
CCC(C)(O)c1cn(-c2ccc(Cl)cc2)nn1 (stereo not drawn) | > 100 µM | > 100 µM | > 100 µM | > 100 µM | > 100 µM | > 100 µM | – | – | –
COC(=O)C(=O)C(C(=O)C(=O)Nc1ccccc1[N+](=O)[O-])c1nc2ccc([N+](=O)[O-])cc2[nH]c1=O (stereo not drawn) | – | > 100 µM | > 100 µM | > 100 µM | > 100 µM | > 100 µM | > 100 µM | – | –
CN1CCC(c2c(O)cc(O)c3c(=O)cc(-c4ccccc4Cl)oc23)C(O)C1 (stereo not drawn) | > 100 µM | > 100 µM | > 100 µM | – | – | – | – | 0.584 µM | GI50 (KM20L2 colon): 0.262 µM
Brc1cc(C2OCCCO2)ccc1OCc1ccccc1 | > 100 µM | – | – | > 100 µM | > 100 µM | > 100 µM | – | > 100 µM | –
CN1CCN=C1c1nnn(-c2ccc([N+](=O)[O-])cc2)c1-c1ccccc1 | > 100 µM | > 100 µM | > 100 µM | > 100 µM | > 100 µM | > 100 µM | – | > 100 µM | –
CS(=O)(=O)c1ccc(COP(N)(=O)N(CCCl)CCCl)cc1 (stereo not drawn) | > 100 µM | – | > 100 µM | > 100 µM | > 100 µM | > 100 µM | – | > 100 µM | –
C=C(C)[C@@H]1CCc2c(O)c(O)c(=O)cc(C)c2C1 | – | – | – | – | – | – | – | – | TGI (MDA-N): > 100 µM
CCOC(=O)[C@@]12C(C)=CC(=O)O[C@]1(C)C1C(=O)NC(=O)C12 (stereo partly drawn) | > 100 µM | > 100 µM | > 100 µM | > 100 µM | > 100 µM | – | > 100 µM | – | –
CCC[CH2][Sn]([CH2]CCC)([CH2]CCC)/[C](=C/[Si](C)(C)c1ccccc1)c1ccc2c(c1)OCO2 | – | – | – | – | – | – | – | – | GI50 (MDA-N): 19.5 µM; TGI (MDA-N): 40.3 µM
Cc1ccc2oc(=O)c3c(O)c4cccc(OC5OC(C)C6O[C@@H](c7ccccc7)OC6C5OC5OC(C)C(O)C(O)C5O)c4c4oc(=O)c1c2c34 (stereo partly drawn) | 6.08 µM | 19.4 µM | 4.08 µM | 6.5 µM | 1.09 µM | 3.43 µM | 4.4 µM | 2.05 µM | TGI (MDA-N): 1.72 µM
O=[N+]([O-])c1cc(/C=N\NS(=O)(=O)c2ccc(Cl)cc2)c(O)c([N+](=O)[O-])c1 | > 100 µM | > 100 µM | 74.1 µM | > 100 µM | 73.3 µM | > 100 µM | > 100 µM | – | –
CCc1ccc2oc(=O)ccc2c1 | – | – | – | – | – | – | – | – | TGI (MDA-N): > 100 µM

SMILES | TGI (DLD-1 colon) | TGI (HOP-18 NSCLC) | TGI (KM20L2 colon) | TGI (LXFL 529 NSCLC) | TGI (DMS 273 small cell lung) | TGI (M19-MEL melanoma) | TGI (RXF-631 renal) | TGI (XF 498 CNS) | other results
COc1cc(/C=C/C(=O)CC(=O)/C=C/c2cc(OC)c(O)c(OC)c2)cc(OC)c1O | – | – | – | – | – | – | – | – | GI50 (MDA-N): 16.9 µM; TGI (MDA-N): 11.2 µM and > 100 µM
COc1ccc(CSC2=C(C#N)C(=O)NC3(CCCCC3)S2)cc1 | – | – | – | – | – | – | – | – | TGI (MDA-N): 57.5 µM
Cc1cc(Cl)cc2c1NC(=O)C2(O)CC(=O)c1ccc(Br)cc1 (stereo not drawn) | > 100 µM | – | > 100 µM | > 100 µM | > 100 µM | > 55 µM | > 100 µM | 76.2 µM | –
CCCC(O)c1cn(-c2cccc(S(=O)(=O)O)c2)nn1 (stereo not drawn) | > 100 µM | > 100 µM | > 100 µM | > 100 µM | > 100 µM | > 100 µM | > 100 µM | > 100 µM | –
CC(/C=C/C(=O)c1sc(C(N)=S)nc1C)=C\c1ccccc1 | 57.4 µM | > 100 µM | > 100 µM | > 100 µM | 45.5 µM | > 100 µM | > 100 µM | > 100 µM | –
COc1ccc(NC(=O)CC(=O)N/N=C(\C)c2cc3ccccc3oc2=O)cc1 | > 100 µM | > 100 µM | > 100 µM | – | > 100 µM | > 100 µM | – | – | –
C1CSC[C@H]2COC[C@@H](CSCCS1)S2 | – | – | – | – | – | – | – | – | TGI (MDA-N): > 100 µM
CCCCNS(=O)(=O)c1ccc(-c2ccc3c(c2)-c2ccc(S(=O)(=O)NCCCC)cc2S3(=O)=O)cc1 | > 100 µM | 54 µM | 15.1 µM | 33.9 µM | > 100 µM | > 100 µM | – | 23.9 µM | –
CCCCCCC(=O)C/C(CCC(=O)N(Cc1ccccc1)Cc1ccccc1)=N\NC(N)=O | – | > 100 µM | > 100 µM | > 100 µM | > 100 µM | > 100 µM | > 100 µM | > 100 µM | –
COc1ccc(Br)c(CN2CCc3ccccc32)c1OS(=O)(=O)c1ccc(C)cc1 | > 100 µM | > 100 µM | – | – | – | > 100 µM | > 100 µM | 92 µM | –
COc1ccc(N2C(=O)[C@@H](N=[N+]=[N-])[C@@H]2[C@H]2COC(C)(C)O2)cc1 | – | > 100 µM | > 100 µM | > 100 µM | > 100 µM | > 100 µM | – | – | –
COc1cc(C)cc(C(=O)/C=C/c2ccccc2)c1O | – | – | – | – | – | – | – | – | TGI (MDA-N): 55.2 µM
O=C(O)c1c2c(cc3c(=O)c4ccccc4[nH]c13)CCCC2 | – | > 100 µM | > 100 µM | > 100 µM | > 100 µM | > 100 µM | > 100 µM | > 100 µM | –
COc1ccc(-c2cc3ccccc3[nH]c2=O)cc1OC | > 100 µM | > 100 µM | > 100 µM | > 100 µM | > 100 µM | > 100 µM | – | > 100 µM | –
CC1=NN(c2ccccc2)C(=O)C12[C@H](c1ccccc1)C2(C#N)C#N (stereo partly drawn) | 4.01 µM | 20.3 µM | 27.3 µM | 3.89 µM | 6.28 µM | 6.41 µM | – | 7.22 µM | –
CC1=C(CO)C(=O)O[C@@H]([C@@H](C)[C@H]2CC[C@H]3[C@@H]4C[C@H]5O[C@]56[C@@H](O)C=CC(=O)[C@]6(C)[C@H]4CC[C@]23C)C1 | 1.03 µM | – | 1.47 µM | 1.26 µM | 1.53 µM | 3.01 µM | – | 2.82 µM | –
COc1cc(Cc2c(C)cc(OC)c3[nH]c4ccccc4c23)cc2c1[nH]c1ccccc12 | > 25 µM | – | 10.8 µM | 22.4 µM | 21.6 µM | > 25 µM | – | > 25 µM | GI50 (KM20L2 colon): 5.28 µM; GI50 (LXFL 529 NSCLC): 4.13 µM; GI50 (XF 498 CNS): 6.03 µM; GI50 (DMS 273 small cell lung): 7.64 µM; GI50 (DLD-1 colon): 8.99 µM; GI50 (M19-MEL melanoma): 9.67 µM
O=C1C(Cl)=C(Cl)C(=O)N1c1ccc(Cl)c(Cl)c1Cl | > 100 µM | > 100 µM | > 100 µM | 88 µM | > 100 µM | > 100 µM | > 100 µM | – | –
Cc1ccc(SSCC(O)C(O)CSSc2ccc(C)cc2)cc1 (stereo not drawn) | 32.1 µM and 30 µM | 31.9 µM and 53.6 µM | 24.2 µM and 26.6 µM | 19 µM and 22.9 µM | 14.9 µM and 22.5 µM | 25.5 µM and 36.9 µM | 22.2 µM and 15.7 µM | 26.7 µM and 31.4 µM | GI50 (RXF-631 renal): 10.1 µM and 3.4 µM; GI50 (DMS 273 small cell lung): 4.26 µM and 10.5 µM; GI50 (HOP-18 NSCLC): 13.5 µM and 27.2 µM
COc1cc2c(cc1OC)C(C(CBr)CBr)N(C1CCCC1)CC2 (stereo not drawn) | > 100 µM | – | – | > 100 µM | > 100 µM | > 100 µM | – | > 100 µM | –
COC(=O)/C(C#N)=C1\CCC(OC)N1C (stereo not drawn) | > 100 µM | > 100 µM | > 100 µM | > 100 µM | > 100 µM | > 100 µM | – | > 100 µM | –
CCC1CCCCN1CC(C(C)=O)C(c1ccccc1)c1c(O)c2ccccc2oc1=O (stereo not drawn) | > 100 µM | – | > 100 µM | – | > 100 µM | > 100 µM | > 100 µM | > 100 µM | –

Reference: PubChem BioAssay (NCI)
